Reference: ChEMBL document CHEMBL5233215, “Recent developments of chalcones as potential antibacterial agents in medicinal chemistry” (Eur J Med Chem, 2020)
Values after ≈ are worked out from the molar mass of the structure shown.

Experiments:
Type in all cases: functional
Staphylococcus aureus [1] = test: Antibacterial activity methicillin-resistant Staphylococcus aureus B10760 assessed as inhibition of bacterial growth by microdilution broth method
Staphylococcus aureus [2] = test: Antibacterial activity methicillin-resistant Staphylococcus aureus P4620 assessed as inhibition of bacterial growth by microdilution broth method
Staphylococcus aureus [3] = test: Antibacterial activity methicillin-resistant Staphylococcus aureus P4423 assessed as inhibition of bacterial growth by microdilution broth method
Staphylococcus aureus [4] = test: Antibacterial activity methicillin-resistant Staphylococcus aureus ST3151 assessed as inhibition of bacterial growth by microdilution broth method
Staphylococcus aureus [5] = test: Antibacterial activity methicillin-resistant Staphylococcus aureus P4627 assessed as inhibition of bacterial growth by microdilution broth method
Enterococcus faecalis = test: Antibacterial activity Enterococcus faecalis ATCC 33186 assessed as inhibition of bacterial growth by CLSI based microbroth dilution assay
Bacillus anthracis = test: Antibacterial activity Bacillus anthracis Sterne 34F2 assessed as inhibition of bacterial growth by CLSI based microbroth dilution assay
Staphylococcus aureus [6] = test: Antibacterial activity methicillin-resistant Staphylococcus aureus USA300 assessed as inhibition of bacterial growth by CLSI based microbroth dilution assay
Staphylococcus aureus [7] = test: Antibacterial activity Staphylococcus aureus ATCC 588 assessed as inhibition of bacterial growth incubated for 24 hrs by broth microdilution method
Staphylococcus aureus [8] = test: Antibacterial activity Staphylococcus aureus ATCC 6538 assessed as inhibition of bacterial growth incubated for 24 hrs by broth microdilution method
Listeria monocytogenes = test: Antibacterial activity Listeria monocytogenes ATCC 7644 assessed as inhibition of bacterial growth incubated for 24 hrs by broth microdilution method

O=C(/C=C/c1ccc(O)cc1)c1ccc2c(c1O)CN(Cc1cc(C(F)(F)F)ccc1Cl)CO2
MIC (Staphylococcus aureus [1]): 25 µg/mL (≈ 51 µM)
MIC (Staphylococcus aureus [2]): 25 µg/mL (≈ 51 µM)
MIC (Staphylococcus aureus [3]): 25 µg/mL (≈ 51 µM)
MIC (Staphylococcus aureus [4]): 25 µg/mL (≈ 51 µM)
MIC (Staphylococcus aureus [5]): 25 µg/mL (≈ 51 µM)

Cc1cc(C(=O)CC(Sc2ccc(Cl)cc2)c2ccc(Cl)cc2)ccc1O (stereo unspecified)
MIC (Enterococcus faecalis): 1.56 µg/mL (≈ 3.74 µM)
MIC (Bacillus anthracis): 3.12 µg/mL (≈ 7.49 µM)
MIC (Staphylococcus aureus [6]): 0.78 µg/mL (≈ 1.87 µM)

O=C(CCc1ccc(O)cc1)c1c(O)cc(O)cc1O [PHLORETIN]
MIC (Staphylococcus aureus [7]): 7.81 µg/mL (≈ 28.5 µM)
MIC (Staphylococcus aureus [8]): 7.81 µg/mL (≈ 28.5 µM)
MIC (Listeria monocytogenes): 62.5 µg/mL (≈ 228 µM)
